In patent publication US20220411388A1, “SUBSTITUTED IMIDAZOLE CARBOXAMIDES AND THEIR USE IN THE TREATMENT OF MEDICAL DISORDERS” (Bial - R&D Investments, S.A., priority 2019, published 2022):
pIC50: −log10 of the molar value. Converted amounts (≈) assume the structure as drawn.

Legend:
acid ceramidase (hACR) = target: T1, acid ceramidase (hACR) (Homo sapiens, UniProt Q13510); experiment: Acid ceramidase inhibition, biochemical fluorescent assay with cell lysates overexpressing acid ceramidase (substrate Rbm14-12); settings: cell lysate, 1 hr preincubation at RT, pH 4.5, Rbm14-12 6.3 μM; read-out: IC50 hACR
T1 construct: expressed in transfected cells
T1 sequence (Q13510 22-395): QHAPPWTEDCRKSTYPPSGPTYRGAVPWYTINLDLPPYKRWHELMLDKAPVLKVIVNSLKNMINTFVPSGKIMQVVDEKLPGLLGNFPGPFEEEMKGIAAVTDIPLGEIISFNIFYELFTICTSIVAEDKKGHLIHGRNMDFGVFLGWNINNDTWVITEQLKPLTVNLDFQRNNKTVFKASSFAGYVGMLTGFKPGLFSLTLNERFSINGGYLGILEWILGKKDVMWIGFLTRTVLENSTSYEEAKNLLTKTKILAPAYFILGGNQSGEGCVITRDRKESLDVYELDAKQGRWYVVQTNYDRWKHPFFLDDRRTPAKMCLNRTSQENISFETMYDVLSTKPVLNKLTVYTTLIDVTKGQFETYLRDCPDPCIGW
In short: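 Enzyme source was lysate from cells overexpressing acid ceramidase, 10 µg protein per reaction. Compounds were preincubated 1 h at RT in 25 mM NaAc, 100 mM NaCl, pH 4.5.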

[1] = Compound solubility in water; type: physicochemical

Row | pIC50 (acid ceramidase (hACR)) | solubility [1] [µg/mL] | Compound
1 | 6.00 to 6.70 | 33 (≈ 114 µM) | COc1nc(-c2cccnn2)cn1C(=O)NCCC(C)C [Example 83, N-iso-Pentyl-2-methoxy-4-(pyridazin-3-yl)-1H-imidazole-1-carboxamide]
2 | 6.00 to 6.70 | 13.6 (≈ 48.9 µM) | O=C(NCc1ccccc1)n1cnc(-c2cccnc2)c1 [Example 42]
3 | < 6.00 | 6 (≈ 20.6 µM) | COc1nc(C2CCCC2)cn1C(=O)NC1CCCCC1 [Example 106, N-Cyclohexyl-4-cyclopentyl-2-methoxy-1H-imidazole-1-carboxamide]
4 | > 6.70 | 3.8 (≈ 11.9 µM) | CC(CCNC(=O)n1cnc(-c2cccnc2)c1)c1ccccc1 (centres unmarked) [Example 16, N-(3-Phenylbutyl)-4-(pyridin-3-yl)-1H-imidazole-1-carboxamide]
